The structures appear in SMILES notation.

In test [1] the test system is KRas-mediated phosphorylation of ERK in H727 cells. Description: Inhibition of KRas-mediated phosphorylation of ERK (Cisbio HTRF pERK), H727 cells. The format is cell-based. The note with it: Homo sapiens, NCI-H727, H727 cells; HTRF pERK. The procedure, abridged: (§1)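 Following a 3-hr exposure of cells to serially diluted compound (from 10 uM, 3-fold, 10 doses), cold lysis for 40 mins preceded a 2-hr room-temperature HTRF immunoassay for phosphorylated ERK.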
On the technique in general: Time-resolved FRET reads energy transfer from a long-lived donor to a nearby acceptor.

Test [2] relates to KRas-mediated phosphorylation of ERK in H460 cells. Description: Inhibition of KRas-mediated phosphorylation of ERK (Cisbio HTRF pERK), H460 cells. The format is cell-based. Conditions: Homo sapiens, NCI-H460, HTRF pERK. The procedure, abridged: as §1
Test [3] has as its system KRas-mediated phosphorylation of ERK in PSN1 cells. In words: Inhibition of KRas-mediated phosphorylation of ERK (Cisbio HTRF pERK), PSN1 cells. The format is cell-based. The note with it: Homo sapiens. The procedure, abridged:
(§2)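 HTRF pERK read-out; 6,000 cells/well, RPMI_10% FBS, overnight 37° C./5% CO2; 4 h covered incubation at RT before reading.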

Test [4] concerns the target T1, KRas^G12R (Homo sapiens, UniProt P01116, G12R).
T1 construct: Biotinylated KRas (corresponding to amino acids 1-169, produced at Accelegan Inc.); biotin (biotinylated); purchased Accelegan Inc
Description: KRas binding assay (TR-FRET tracer displacement), KRas G12R.

The target of test [5] is T2, KRas^G12V (Homo sapiens, UniProt P01116, G12V).
T2 construct: Biotinylated KRas (corresponding to amino acids 1-169, produced at Accelegan Inc.); biotin (biotinylated); purchased Accelegan Inc
T2 sequence (P01116 1-169 isoform P01116-2 G12V): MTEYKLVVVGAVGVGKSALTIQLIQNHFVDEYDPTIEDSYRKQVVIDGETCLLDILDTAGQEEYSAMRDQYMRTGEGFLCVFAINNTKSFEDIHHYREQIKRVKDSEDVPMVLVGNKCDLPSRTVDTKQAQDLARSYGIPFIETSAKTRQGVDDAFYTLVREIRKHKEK
In words: KRas binding assay (TR-FRET tracer displacement), KRas G12V.

In test [6] the test system is KRas-mediated phosphorylation of ERK in MKN1 cells. Description: Inhibition of KRas-mediated phosphorylation of ERK (Cisbio HTRF pERK), MKN1 cells. The format is cell-based. Conditions: Homo sapiens, MKN-1. The method in brief: as §2
Test [7] addresses T3, KRas^G12D (Homo sapiens, UniProt P01116, G12D).
T3 construct: Biotinylated KRas (corresponding to amino acids 1-169, produced at Accelegan Inc.); biotin (biotinylated); purchased Accelegan Inc
Description: KRas binding assay (TR-FRET tracer displacement), KRas G12D.

Test [8] has as its system KRas-mediated phosphorylation of ERK in H358 cells. Description: Inhibition of KRas-mediated phosphorylation of ERK (Cisbio HTRF pERK), H358 cells. Conditions: Homo sapiens, NCI-H358, HTRF pERK. The test is classed as cell-based. The method in brief: as §1
For test [9], the system named is KRas-mediated phosphorylation of ERK in AsPC-1 cells. Description: Inhibition of KRas-mediated phosphorylation of ERK (Cisbio HTRF pERK), AsPC-1 cells. The format is cell-based. The note with it: Homo sapiens, ASPC1, AsPC-1 cells; HTRF pERK. The method in brief:
as §1

Test [10] concerns KRas-mediated phosphorylation of ERK in HCT116 cells. Description: Inhibition of KRas-mediated phosphorylation of ERK (Cisbio HTRF pERK), HCT116 cells. The format is cell-based. Conditions: Homo sapiens, HCT-116, HTRF pERK. The method in brief:
(§3)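 Phosphorylated ERK was quantified by HTRF using d2-conjugate and Cryptate antibodies added to lysates for 2 hrs at room temperature.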

Test [11] concerns KRas-mediated phosphorylation of ERK in A549 cells. Description: Inhibition of KRas-mediated phosphorylation of ERK (Cisbio HTRF pERK), A549 cells. The test is classed as cell-based. Conditions: Homo sapiens, HTRF pERK. The procedure, abridged: as §3

T3 sequence (P01116 1-169 isoform P01116-2 G12D): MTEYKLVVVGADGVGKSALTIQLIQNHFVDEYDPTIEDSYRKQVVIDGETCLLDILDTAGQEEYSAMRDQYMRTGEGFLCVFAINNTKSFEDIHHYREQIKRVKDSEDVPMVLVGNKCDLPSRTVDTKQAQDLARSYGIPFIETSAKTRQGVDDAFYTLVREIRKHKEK
T1 sequence (P01116 1-169 isoform P01116-2 G12R): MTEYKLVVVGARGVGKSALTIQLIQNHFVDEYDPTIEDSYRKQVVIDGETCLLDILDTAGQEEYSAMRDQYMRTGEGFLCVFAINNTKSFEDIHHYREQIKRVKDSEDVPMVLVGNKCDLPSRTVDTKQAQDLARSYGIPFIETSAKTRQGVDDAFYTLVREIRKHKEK

As for `CCc1c(F)ccc2cc(O)cc(-c3ncc4c(N5CC6CCC(C5)C6CC(N)=O)nc(OC[C@@]56CCCN5C[C@H](F)C6)nc4c3F)c12` (stereo partly drawn) [Example 859, 2-((1R,5S,8S)-3-(7-(8-ethyl-7-fluoro-3-hydroxynaphthalen-1-yl)-8-fluoro-2-(((2R,7aS)-2-fluorotetrahydro-1H-pyrrolizin-7a(5H)-yl)methoxy)pyrido[4,3-d]pyrimidin-4-yl)-3-azabicyclo[3.2.1]octan-8-yl)acetamide], the IC50 in test [1] is 5480 nM; in test [2], 892 nM; in test [3], more than 10000 nM; in [4] it was 13 nM; in test [5] it was 17 nM; in test [6], 56 nM. The half-maximal inhibitory concentration (IC50) is 51 nM in [7]; 1140 nM in test [8]; more than 10000 nM in [9]; 1260 nM in test [10]; more than 10000 nM in test [11].
Turning to `CCc1c(F)ccc2cc(O)cc(-c3ncc4c(N5CC6CCC(C5)C6CC(=O)N(C)C)nc(OC[C@@]56CCCN5C[C@H](F)C6)nc4c3F)c12` (stereo partly drawn) [Example 860, 2-((1R,5S,8S)-3-(7-(8-ethyl-7-fluoro-3-hydroxynaphthalen-1-yl)-8-fluoro-2-(((2R,7aS)-2-fluorotetrahydro-1H-pyrrolizin-7a(5H)-yl)methoxy)pyrido[4,3-d]pyrimidin-4-yl)-3-azabicyclo[3.2.1]octan-8-yl)-N,N-dimethylacetamide], the IC50 in test [1] was 1120 nM; in test [2], 395 nM; in test [3], more than 10000 nM; in test [4], 68 nM; in test [5] it was 13 nM; in test [6], 7 nM. Further, the concentration for half-maximal inhibition (IC50) in test [7] was determined as 91 nM; in test [8], 455 nM; in test [9] it was 2600 nM; in [10], 600 nM; in test [11], 2760 nM.
In the case of `CCc1c(F)ccc2cc(O)cc(-c3ncc4c(N5CC6CCC(C5)C6C(N)=O)nc(OC[C@@]56CCCN5C[C@H](F)C6)nc4c3F)c12` (stereo partly drawn) [Example 861, 3-(7-(8-ethyl-7-fluoro-3-hydroxynaphthalen-1-yl)-8-fluoro-2-(((2R,7aS)-2-fluorohexahydro-1H-pyrrolizin-7a-yl)methoxy)pyrido[4,3-d]pyrimidin-4-yl)-3-azabicyclo[3.2.1]octane-8-carboxamide], the half-inhibitory concentration (IC50) is 592 nM in test [1]; 173 nM in test [2]; more than 10000 nM in test [3]; less than 2 nM in test [4]; less than 2 nM in [5]; 1 nM in [6]. Moreover, the concentration for half-maximal inhibition (IC50) was 4 nM in test [7]; 45 nM in test [8]; 1450 nM in [9]; 254 nM in test [10]; 1340 nM in [11].
In the case of `CCc1c(F)ccc2cc(O)cc(-c3ncc4c(N5CC6CCC(C5)C6C)nc(OC[C@@]56CCCN5C[C@H](F)C6)nc4c3F)c12` (stereo partly drawn) [Example 862, 5-ethyl-6-fluoro-4-(8-fluoro-2-(((2R,7aS)-2-fluorohexahydro-1H-pyrrolizin-7a-yl)methoxy)-4-((1R,5S,8S)-8-methyl-3-azabicyclo[3.2.1]octan-3-yl)pyrido[4,3-d]pyrimidin-7-yl)naphthalen-2-ol], the IC50 in test [1] was 3700 nM; in test [2], 1110 nM; in test [3], more than 10000 nM; in test [4], 95 nM; in test [5], 60 nM; in test [6], 196 nM. For the same compound, the IC50 was 311 nM in test [7]; 1680 nM in test [8]; 6210 nM in [9]; 2870 nM in test [10]; 7210 nM in test [11].
Regarding `CCc1c(F)ccc2cc(O)cc(-c3ncc4c(N5CC6CCC(C5)C6CC(=O)NC)nc(OC[C@@]56CCCN5C[C@H](F)C6)nc4c3F)c12` (stereo partly drawn) [Example 863, 2-((1R,5S,8S)-3-(7-(8-ethyl-7-fluoro-3-hydroxynaphthalen-1-yl)-8-fluoro-2-(((2R,7aS)-2-fluorotetrahydro-1H-pyrrolizin-7a(5H)-yl)methoxy)pyrido[4,3-d]pyrimidin-4-yl)-3-azabicyclo[3.2.1]octan-8-yl)-N-methylacetamide], the IC50 in test [1] was 4000 nM; in [2], 1990 nM; in test [3], more than 10000 nM; in [4], 34 nM; in [5], 32 nM; in test [6], 208 nM. Moreover, the IC50 in test [7] was 145 nM; in [8], 1360 nM; in [9], more than 10000 nM; in test [10] it was 3890 nM; in test [11] it was more than 10000 nM.
`Oc1cc(-c2ncc3c(N4CCOCC5(CCO5)C4)nc(OC[C@@]45CCCN4C[C@H](F)C5)nc3c2F)c2c(Cl)c(F)ccc2c1` (stereo partly drawn) [Example 868, 5-chloro-6-fluoro-4-(8-fluoro-2-(((2R,7aS)-2-fluorotetrahydro-1H-pyrrolizin-7a(5H)-yl)methoxy)-4-(1,6-dioxa-9-azaspiro[3.6]decan-9-yl)pyrido[4,3-d]pyrimidin-7-yl)naphthalen-2-ol]: the 50% inhibitory concentration (IC50) was 24 nM in [1]; 22 nM in test [2]; 3420 nM in test [3]; less than 2 nM in [4]; less than 2 nM in test [5]; 21 nM in test [6]. Also, the IC50 in test [7] was less than 2 nM; in [8] it was 12 nM; in [9], 17 nM; in test [10], 53 nM; in [11] it was 61 nM.
For `CCc1c(F)ccc2cc(O)cc(-c3ncc4c(N5CC6CCC(C5)C6(F)F)nc(OC[C@@]56CCCN5C[C@H](F)C6)nc4c3F)c12` [Example 869, 4-(4-(8,8-difluoro-3-azabicyclo[3.2.1]octan-3-yl)-8-fluoro-2-(((2R,7aS)-2-fluorotetrahydro-1H-pyrrolizin-7a(5H)-yl)methoxy)pyrido[4,3-d]pyrimidin-7-yl)-5-ethyl-6-fluoronaphthalen-2-ol], the IC50 in test [1] was 4520 nM; in test [2], 271 nM; in [3], more than 10000 nM; in test [4] it was 26 nM; in test [5], 116 nM; in test [6] it was 290 nM. For the same compound, the half-maximal inhibitory concentration (IC50) in [7] came out at 210 nM; in [8] it was 922 nM; in test [9], 3600 nM; in test [10] it was 1200 nM; in [11], 2760 nM.
`CCc1c(F)ccc2cc(O)cc(-c3ncc4c(N5CCC[C@@](C)(O)C5)nc(OC[C@@]56CCCN5[C@H](COCC5CC5)CC6)nc4c3F)c12` [Example 870, (R)-1-(2-(((3S,7aS)-3-((cyclopropylmethoxy)methyl)tetrahydro-1H-pyrrolizin-7a(5H)-yl)methoxy)-7-(8-ethyl-7-fluoro-3-hydroxynaphthalen-1-yl)-8-fluoropyrido[4,3-d]pyrimidin-4-yl)-3-methylpiperidin-3-ol]: the IC50 in test [1] is 98 nM; in test [2] it was 25 nM; in [3] it was 1300 nM; in test [4], less than 2 nM; in test [5], less than 2 nM; in [6], 18 nM. In addition, the IC50 was less than 2 nM in test [7]; 10 nM in test [8]; 51 nM in test [9]; 49 nM in [10]; 66 nM in test [11].
`CCCCN(CCCC)C(=O)OC[C@@H]1CC[C@@]2(COc3nc(N4CCC[C@@](C)(O)C4)c4cnc(-c5cc(O)cc6ccc(F)c(CC)c56)c(F)c4n3)CCCN12` [Example 873, ((3S,7aR)-7a-(((7-(8-ethyl-7-fluoro-3-hydroxynaphthalen-1-yl)-8-fluoro-4-((R)-3-hydroxy-3-methylpiperidin-1-yl)pyrido[4,3-d]pyrimidin-2-yl)oxy)methyl)hexahydro-1H-pyrrolizin-3-yl)methyl dibutylcarbamate]: the half-inhibitory concentration (IC50) in [1] is 408 nM; in [2], 194 nM; in [3] it was more than 10000 nM; in [4], 12 nM; in test [5], 7 nM; in [6], 198 nM. The half-maximal inhibitory concentration (IC50) in test [7] is 7 nM; in test [8], 149 nM; in [9], 93 nM; in test [10], 325 nM; in [11], 135 nM.

What is called IC50 is the midpoint of a concentration-inhibition curve. Low values mean inhibition by little substance, high ones a need for much substance.

The values are drawn from US20260015350A1, “AZAQUINAZOLINE PAN-KRAS INHIBITORS” (Mirati Therapeutics, Inc., priority 2022, published 2026).
